Data taken from patent US9421220B2, “Anti-cancer composition comprising alginate” (THE UNIVERSITY OF BIRMINGHAM EDGBASTON, priority 2009, dated 2016).

Key:
[1] = tested on: Apc^Min/+ mouse; assay: Tumour burden in Apc^Min/+ mice; type: in vivo; details: for effect on tumour number, size or tumour burden compared to control mice: Apc^Min/+ mice fed control diet, sub-cutaneous injection
Description: To delineate how iron mediates colorectal carcinogenesis in-vivo, further experiments were carried out using the ‘Apc^Min/+’ mouse. These mice carry a mutation which disrupts the ability of the APC tumour suppressor to bind and turnover b-catenin, and the mice develop 100's of benign adenomas.
Apc^Min/+ mice were fed a standard control diet (n=17) or an iron deficient diet (n=11) immediately post weaning with tumour burden being assessed at 80 days of age. In addition mice were fed a high iron diet (standard control diet supplemented with 2% reduced pentacarbonyl iron (Harlan UK)) (n=6) but in these animals tumour burden was assessed at 45 days of age. A fourth group of Apc^Min/+ mice (n=9), were fed the standard control diet but upon reaching 50 days of age were injected sub-cutaneously with iron dextran (50 mgs) with tumour burden being assessed at 85 days of age. A fifth group of Apc^Min/+ mice (n=9), were fed the standard control diet and post weaning were injected daily sub-cutaneously with the systemic iron chelator desferioxamine (200 mgs/kg).

[2] = tested on: normal human colonic cells; details: normal cells exposed to increased levels of iron; cited from earlier work
[3] = tested on: cells containing a mutant APC protein; details: cells deficient in the APC protein exposed to iron; cited from earlier work

Molecule | effect on tumour number, size or tumour burden compared to control mice [1] | phenotypic effects [2] | cellular viability and proliferation [3] | tumour burden ([1]; Apc^Min/+ mice on iron deficient diet co-administered with iron dextran)
CC(=O)N(O)CCCCCNC(=O)CCC(=O)N(O)CCCCCNC(=O)CCC(=O)N(O)CCCCCN [desferioxamine] | no effect | – | – | –
[Fe] [iron] | – | no phenotypic effects | increased | –
iron dextran | no effect | – | – | suppression
